Laboratory results from ChEMBL document CHEMBL1157406, “Cytotoxic metabolites from the fungal endophyte Alternaria sp. and their subsequent detection in its host plant Polygonum senegalense” (J Nat Prod, 2008).

The molecules below were run on L5178Y (assay: Cytotoxicity against mouse L5178Y cells at 10 ug/ml by MTT assay).
Format: functional

Going from `CC[C@H](C)[C@@H]1NC(=O)C(C(C)=O)=C1O` [TENUAZONIC ACID] to `Cc1cc(=O)c2c(C)cc(O)cc2o1`, the Activity rises from 57.9% to 95%.

In the case of `COc1cc(O)c2c(=O)oc3cc(OS(=O)(=O)O)cc(C)c3c2c1`, the Activity is reported as 89%.
